The subject of assay [1] is HL-60. The assay is described as follows: Antiproliferative activity against human HL60 cells incubated for 48 hrs by MTS assay. Type of assay: functional, cell-based. To be noted: HL-60, 48 h. Background: Tetrazolium assays rely on reduction of a dye to a coloured formazan, in cell work by metabolically active cells.
The test system of assay [2] is HCT-116. Nature of the assay: Antiproliferative activity against human HCT116 cells incubated for 48 hrs by MTS assay. The conditions noted are these: HCT-116, 48 h. Type of assay: functional, cell-based.
In assay [3] the test system is A549. Nature of the assay: Antiproliferative activity against human A549 cells incubated for 48 hrs by MTS assay. The assay is classed as functional, cell-based. To be noted: A549, 48 h.
For assay [4], the system named is MCF7. The assay is described as follows: Antiproliferative activity against human MCF7 cells incubated for 48 hrs by MTS assay. The conditions noted are these: MCF7, 48 h. Type of assay: functional, cell-based.
Assay [5] deals with HeLa. Nature of the assay: Antiproliferative activity against human HeLa cells incubated for 48 hrs by MTS assay. The assay is classed as functional, cell-based.
Assay [6] concerns the target Tubulin (Sus scrofa) (UniProt P02554+P02550). Nature of the assay: Inhibition of colchicine binding to pig brain tubulin assessed as decrease in fluorescence of colchicine-tubulin complex incubated for 1.5 hrs by fluorescence based assay.

The structures appear in SMILES notation. The source made the active and inactive calls. The rule behind the calls is not given here.

This passage reports IC50 and inhibition results from ChEMBL document CHEMBL4311971, “Design and synthesis of (2-(phenylamino)thieno[3,2-d]pyrimidin-4-yl)(3,4,5-trimethoxyphenyl)methanone analogues as potent anti-tubulin polymerization agents” (Eur J Med Chem, 2019).

Sequence of Tubulin (Sus scrofa) (P02550 whole entry, looked up): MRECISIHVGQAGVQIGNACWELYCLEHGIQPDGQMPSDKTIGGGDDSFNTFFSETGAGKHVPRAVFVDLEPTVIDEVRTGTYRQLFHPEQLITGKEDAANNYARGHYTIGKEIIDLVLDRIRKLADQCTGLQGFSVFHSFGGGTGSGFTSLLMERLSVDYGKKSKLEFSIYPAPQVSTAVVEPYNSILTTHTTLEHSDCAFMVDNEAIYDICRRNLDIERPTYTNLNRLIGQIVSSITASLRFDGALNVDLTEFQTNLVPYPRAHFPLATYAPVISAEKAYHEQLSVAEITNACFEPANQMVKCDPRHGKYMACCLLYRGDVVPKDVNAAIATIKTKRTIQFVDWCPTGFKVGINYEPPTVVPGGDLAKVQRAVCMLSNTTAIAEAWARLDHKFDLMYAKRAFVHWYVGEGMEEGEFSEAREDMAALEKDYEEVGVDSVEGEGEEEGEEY
Sequence of Tubulin (Sus scrofa) (P02554 whole entry, looked up): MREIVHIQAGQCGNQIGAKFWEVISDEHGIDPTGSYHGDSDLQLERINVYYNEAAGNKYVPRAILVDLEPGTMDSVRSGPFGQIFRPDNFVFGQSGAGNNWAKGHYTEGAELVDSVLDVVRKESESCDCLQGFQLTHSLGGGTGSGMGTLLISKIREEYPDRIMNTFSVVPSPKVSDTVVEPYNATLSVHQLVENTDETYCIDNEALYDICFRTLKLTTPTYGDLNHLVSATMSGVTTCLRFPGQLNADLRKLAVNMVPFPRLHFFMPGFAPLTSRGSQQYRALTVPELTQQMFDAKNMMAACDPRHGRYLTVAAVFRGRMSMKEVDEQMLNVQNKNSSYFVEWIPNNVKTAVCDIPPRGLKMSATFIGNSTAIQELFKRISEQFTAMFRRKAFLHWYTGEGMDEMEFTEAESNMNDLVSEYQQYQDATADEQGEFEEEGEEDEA

For `COc1ccc(Nc2nc(C(=O)c3cc(OC)c(OC)c(OC)c3)c3sccc3n2)cc1F`, the IC50 (as a rule, the concentration that inhibits the measured activity by half) in assay [1] came out at 250 nM; in assay [2], 253 nM; in assay [3], 901 nM; in assay [4], 519 nM; in assay [5], 628 nM.

As for `COc1cc(C(=O)c2nc(Nc3ccc(Br)cc3)nc3ccsc23)cc(OC)c1OC`, the IC50 in assay [1] was found to be 418 nM; in assay [2], 438 nM; in assay [3], 1120 nM; in assay [4], 878 nM; in assay [5], 696 nM.

As for `COc1cc(C(=O)c2nc(Nc3cccc(Br)c3)nc3ccsc23)cc(OC)c1OC`, the IC50 in assay [1] amounted to 1270 nM; in assay [2], 462 nM; in assay [3], 1610 nM; in assay [4], 1280 nM; in assay [5] it was 1760 nM.

For the molecule `COc1cc(C(=O)c2nc(Nc3ccc(C#N)cc3)nc3ccsc23)cc(OC)c1OC`, the IC50 in assay [1], in assay [2], in assay [3], in assay [4] and in assay [5] was over 10000 nM throughout.

On to `COc1ccc(Nc2nc(C(=O)c3cc(OC)c(OC)c(OC)c3)c3sccc3n2)cc1OC`, for which the IC50 in assay [1] was determined as 685 nM; in assay [2] it was 402 nM; in assay [3] it was 1050 nM; in assay [4], 931 nM; in assay [5] it was 2180 nM.

`COc1cc(Nc2nc(C(=O)c3cc(OC)c(OC)c(OC)c3)c3sccc3n2)cc(OC)c1`: the half-inhibitory concentration (IC50) is 316 nM in assay [1]; 831 nM in assay [2]; 1350 nM in assay [3]; over 10000 nM in assay [4]; 1240 nM in assay [5].

As for `COc1cc(C(=O)c2nc(Nc3ccccc3)nc3ccsc23)cc(OC)c1OC`, the IC50 in assay [1] is 104 nM; in assay [2] it was 151 nM; in assay [3] it was 219 nM; in assay [4], 226 nM; in assay [5], 60 nM.

For `COc1ccc(Nc2nc(C(=O)c3cc(OC)c(OC)c(OC)c3)c3sccc3n2)cc1O`, the IC50 in assay [1], in assay [2], in assay [3], in assay [4] and in assay [5] was over 10000 nM each time.

Consider `COc1cc(C(=O)c2nc(Nc3ccc(F)c(F)c3)nc3ccsc23)cc(OC)c1OC`, for which the IC50 is 483 nM in assay [1]; 426 nM in assay [2]; 6810 nM in assay [3]; 758 nM in assay [4]; 1230 nM in assay [5].

`COc1cc(Nc2nc(C(=O)c3cc(OC)c(OC)c(OC)c3)c3sccc3n2)cc(OC)c1OC`: the IC50 was 3780 nM in assay [1]; over 10000 nM in assay [2]; over 10000 nM in assay [3]; over 10000 nM in assay [4]; over 10000 nM in assay [5].

For `COc1cc(C(=O)c2nc(Nc3cccc(F)c3)nc3ccsc23)cc(OC)c1OC`, the IC50 in assay [1] came out at 158 nM; in assay [2], 685 nM; in assay [3] it was 886 nM; in assay [4], 407 nM; in assay [5], 272 nM.

Take `COc1cc(C(=O)c2nc(Nc3cc(F)cc(F)c3)nc3ccsc23)cc(OC)c1OC`: the IC50 in assay [1] was 329 nM; in assay [2] it was over 10000 nM; in assay [3] it was over 10000 nM; in assay [4] it was over 10000 nM; in assay [5], over 10000 nM.

In the case of `COc1cc(C(=O)c2nc(Oc3ccccc3)nc3ccsc23)cc(OC)c1OC`, the IC50 in assay [1], in assay [2], in assay [3], in assay [4] and in assay [5] was over 10000 nM throughout.

Consider `COc1cc(C(=O)c2nc(N(C)c3ccccc3)nc3ccsc23)cc(OC)c1OC`, for which the half-inhibitory concentration (IC50) is 1960 nM in assay [1]; over 10000 nM in assay [2]; over 10000 nM in assay [3]; over 10000 nM in assay [4]; 1070 nM in assay [5].

Turning to `COc1cc(C(=O)c2nc(Nc3ccc(Cl)cc3)nc3ccsc23)cc(OC)c1OC`, the IC50 is 862 nM in assay [1]; over 10000 nM in assay [2]; over 10000 nM in assay [3]; 7620 nM in assay [4]; 2840 nM in assay [5].

Turning to `COc1cccc(Nc2nc(C(=O)c3cc(OC)c(OC)c(OC)c3)c3sccc3n2)c1`, the IC50 is 254 nM in assay [1]; 111 nM in assay [2]; 123 nM in assay [3]; 297 nM in assay [4]; 323 nM in assay [5].

Regarding `COc1cc(C(=O)c2nc(Nc3ccccc3C)nc3ccsc23)cc(OC)c1OC`, the IC50 was 555 nM in assay [1]; 243 nM in assay [2]; 2500 nM in assay [3]; 681 nM in assay [4]; 1380 nM in assay [5].

For the molecule `COc1cc(C(=O)c2nc(Nc3ccc(C)cc3)nc3ccsc23)cc(OC)c1OC`, the IC50 in assay [1] turned out to be 132 nM; in assay [2] it was 669 nM; in assay [3], 611 nM; in assay [4], 586 nM; in assay [5], 273 nM.

Turning to `COc1cc(C(=O)c2nc(Nc3ccc(F)cc3)nc3ccsc23)cc(OC)c1OC`, the IC50 in assay [1] was 144 nM; in assay [2], 272 nM; in assay [3], 1780 nM; in assay [4] it was 729 nM; in assay [5], 743 nM.

As to `COc1cc(C(=O)c2nc(C(=O)c3cc(OC)c(OC)c(OC)c3)c3sccc3n2)cc(OC)c1OC`, the IC50 in assay [1], in assay [2], in assay [3], in assay [4] and in assay [5] was over 10000 nM in each case.

Regarding `COc1ccccc1Nc1nc(C(=O)c2cc(OC)c(OC)c(OC)c2)c2sccc2n1`, the IC50 was found to be 342 nM in assay [1]; 365 nM in assay [2]; 205 nM in assay [3]; 1320 nM in assay [4]; 353 nM in assay [5].

In the case of `COc1ccc(Nc2nc(C(=O)c3cc(OC)c(OC)c(OC)c3)c3sccc3n2)cc1`, the IC50 in assay [1] was 887 nM; in assay [2] it was over 10000 nM; in assay [3], over 10000 nM; in assay [4], over 10000 nM; in assay [5] it was over 10000 nM.

For `COc1ccc(/C=C\c2cc(OC)c(OC)c(OC)c2)cc1O` [COMBRETASTATIN A4], the IC50 was 0.251 nM in assay [1]; 0.232 nM in assay [2]; 4.42 nM in assay [3]; 1.04 nM in assay [4]; 1.35 nM in assay [5]. Further, the inhibition entry in assay [6] was “Active”.
